These results are taken from PubChem BioAssay AID743175 (Broad Institute, 2013).

Activity calls are given as the source filed them. No rule for the calls is given here.

The first experiment has as its system Mycobacterium tuberculosis non-replicating, growth inhibition plate reader. Kind of experiment: inhibitor activity on non-replicating M. tuberculosis, dose response, plate reader, dry powder (AID 743175).
Settings: not given
For the compound `O=C(NC1CC2CCC1C2)C1COc2ccccc2O1` (stereo not given), the AC90 is > 38 µM (inactive). Consider `CCc1ccc(OCCCC(=O)NCc2ccco2)cc1`, for which the AC90 is > 38 µM (inactive). On the same count and under the same terms, with `CCOC(=O)COc1ccc2c(c1)C(=O)CC1(CCCCC1)O2` the figure was > 38 µM (inactive); with `CCOC(=O)c1sc(NC(=O)CCN2CCOCC2)c(C(=O)OCC)c1C`, > 38 µM (inactive); with `O=C(COc1cccc2ccccc12)Nc1nc2ccccc2[nH]1`, > 38 µM (inactive). The same measure, in the same setting: with `COc1ccccc1C#Cc1ccc([C@H]2[C@@H](CO)N(C(=O)C3CC3)[C@H]2C#N)cc1` the figure was > 26 µM (inactive); with `CCOC(=O)COc1ccc2c(=O)c(-c3ccccc3)coc2c1`, > 38 µM (inactive). On the same count and under the same terms, with `CCCCN(C/C=C/c1ccccc1OC)Cc1ccccc1` the figure was > 38 µM (inactive); with `COC(=O)COc1ccc2c(=O)c(Oc3ccccc3)c(C)oc2c1`, > 38 µM (inactive).

`Brc1c(-c2ccc3c(c2)OCO3)nc2ncccn12`: the AC90 was 32.3 µM. The same measure, in the same setting: as for `NC1CCN(c2c(F)cc3c(=O)c(C(=O)O)cn(C4CC4)c3c2Cl)C1` (stereo not given), the figure is 2.94 µM. Still for that read-out and setting: with `COc1ccccc1C#Cc1ccc([C@H]2[C@H](C#N)N(C(=O)C3CC3)[C@H]2CO)cc1` the figure was > 26 µM (inactive); with `O=C(NCc1cccs1)c1ccc(Br)o1`, > 38 µM (inactive). The same measure, in the same setting: with `O=C(COc1c(Br)cc(Br)c2cccnc12)N1CCCCC1` the figure was 6.33 µM; with `Cc1nnc(NC(=O)c2ccc3ccccc3c2)o1`, 1.34 µM. Turning to `CCOC(=O)COc1ccc(C(=O)NC2CCCCC2)cc1`, the AC90 was > 38 µM (inactive). On the same count and under the same terms, as for `Cc1cccc(C)c1N1C(=O)CC(N2CCSCC2)C1=O` (stereo not given), the figure is 5.72 µM; as for `COc1ccccc1C#Cc1ccc([C@@H]2[C@H](C#N)N(C(=O)C3CC3)[C@H]2CO)cc1`, > 23.5 µM (inactive); as for `CCOCCOC(=O)COc1ccc2c(-c3ccccc3)cc(=O)oc2c1`, > 38 µM (inactive). Still for that read-out and setting: with `c1ccc(Nc2nc(-c3ccccn3)cs2)cc1` the figure was > 38 µM (inactive); with `CCOC(=O)c1cc(-c2csc(COc3ccccc3)n2)on1`, > 38 µM (inactive).

For `CCOC(=O)COc1ccc2c(=O)cc(-c3ccccc3)oc2c1`, the AC90 is > 38 µM (inactive). Still for that read-out and setting: as for `COc1ccccc1C#Cc1ccc([C@@H]2[C@@H](C#N)N(C(=O)C3CC3)[C@H]2CO)cc1`, the figure is > 26 µM (inactive); as for `Cc1cccc(Cn2ccc(NC(=O)c3ccc4c(c3)OCO4)n2)c1`, 20 µM; as for `O=C(Nc1nc2ccccc2[nH]1)c1cccc(Cl)c1`, 11.4 µM. Same read-out and setting: with `COC(=O)COc1cccc(NC(=O)c2ccc(Cl)cc2)c1` the figure was > 38 µM (inactive).

System in the next experiment: not listed separately
Described as above. As to conditions: Mycobacterium tuberculosis non-replicating, growth inhibition plate reader; at 26 µM (top of the series).
For `COc1ccccc1C#Cc1ccc([C@H]2[C@@H](CO)N(C(=O)C3CC3)[C@H]2C#N)cc1`, the activity change, negative = inhibition was -16.4% (inactive). Same read-out and setting: with `COCCNC(=O)C[C@@H]1C[C@@H]2c3cc(NC(=O)Nc4ccc(C(F)(F)F)cc4)ccc3O[C@@H]2[C@@H](CO)O1` the figure was 9.37% (inactive).

`Cc1noc(C)c1NC(=O)Nc1ccc2c(c1)C(=O)N(C)[C@H]1CC[C@H](CC(=O)NCc3ccc(Cl)cc3)O[C@@H]1CO2`: the activity change, negative = inhibition is -8.85% (inactive).

Regarding `C[C@H](C(=O)N(C)C[C@@H]1OCc2ccccc2-c2ccccc2C(=O)N([C@@H](C)CO)C[C@@H]1C)c1ccccc1`, the activity change, negative = inhibition is -3.21% (inactive).
